Entries after “also recorded” stand apart in the source; their conditions may differ.
Assays:
K-562 = assay: Cell proliferation by MTT method, K-562; assay type: cell-based; conditions: Homo sapiens
Protocol: (§1) The objective of this study was to determine the influence of the compounds on cell proliferation of K-562, A-549, MCF-7, HeLa, WI-38 by MTT method. The compounds were tested over a three-fold dilution series in triplicate for the determination of EC50 of their influence on cell proliferation.
(§2) The assay is based on the cleavage of the yellow tetrazolium salt MTT into purple formazan by metabolically active cells. The MTT formazan crystals are insoluble in aqueous solution, but may be solubilized by adding the 10% SDS, then incubating the plates overnight in a humidified atmosphere (e.g., 37° C., 5% CO2). The solubilized formazan product can be photometrically quantitated using Tecan reader. An increase in the number of living cells results in an increase of total metabolic activity, which leads to a stronger color formation.
(§3) EC50 values are defined as the compound concentration at which 50% of reaction product is formed.
(§4) Test compounds were dissolved to 10 mM in 100% DMSO.
(§5) In the day of the experiment cells were seeded into all wells of 96-well plates. Serial dilution of compounds was performed in a separate 96-well plate at 20 times final assay concentration in cell culture medium (DMEM with 10% Fetal Bovine Serum). 5 μl of compound was transferred to 96-well plate containing seeded cells in cell culture medium (final total volume=100 μl). Cells were cultured in the presence of the respective test substances in the 96-well plate at 37° C. in a humidified 5% CO2 incubator for a certain period of time (24, 72 or 120 hours). Then 5 μL of thiazolyl blue tetrazolium bromide (MTT) 5 mg/mL was added to the cells and the cells were reincubated 4 hours in a humidified 5% CO2 incubator. Then 10% SDS was added into the each well. The reaction product was quantified by measuring the absorbance at 568 nm using a scanning multiwell spectrophotometer Tecan. The developed color and thereby the absorbance values directly correlate to the number of the living cells.
(§6) The data were analyzed using Microsoft Excel 2000, GraphPad Prism 3.03. […]

HeLa = assay: Cell proliferation by MTT method, HeLa; assay type: cell-based; conditions: Homo sapiens
Protocol: as §1, §2, §3, §4, §5, §6

WI-38 = assay: Cell proliferation by MTT method, WI-38; assay type: cell-based; conditions: Homo sapiens
Protocol: as §1, §2, §3, §4, §5, §6

[1] = test system: Hsp90 client proteins (c-Raf-1, Cdk4, Her2) and co-chaperone Hsp70; assay: Determination of biomarkers in cell cultures (western blot, MCF7 cells); assay type: cell-based, human; conditions: 33 and 100 μM, 72 hours
From the text: FIG. 1 is a western blot analysis to determine the protein levels of Hsp90 client proteins (c-Raf-1, Cdk4, and Her2) and the co-chaperone Hsp70 upon treatment with increasing concentrations of example 6 (compound of the invention) and 17AAG (which is known in the state of the art as a degradation promoter).
The aim of this study was to determine the influence of example 6 on the levels of pharmacodynamic biomarkers such as c-Raf-1, Cdk4, Her2 and Hsp70, indicative that the effect observed in cell viability is mediated through inhibition of Hsp90. GADPH was used as a control of protein loading.
MCF7 cells (1×10^6) were seeded on tissue culture dishes and allowed to grow overnight at 37° C. with 5% CO2. Cells were treated with example 6 compound (at 33 and 100 μM) and the known Hsp90 inhibitor 17AAG (at […]). 0.5% DMSO was used as control. […] Protein concentration was measured by the Bradford method (Bio-Rad Protein Assay, Bio-Rad). […] Following appropriate secondary antibody incubation for 1 h at room temperature (anti-rabbit IgG-HRP, NA934V, Amersham Biosciences, diluted 1:8000; anti-mouse IgG-HRP, sc-2061, Santa Cruz Biotechnology, diluted 1:2500 and, anti-goat IgG-HRP, sc-31154, Santa Cruz Biotechnology, diluted 1:3500), the specific protein signals were detected using the ECL-Plus Western blotting detection system (GE Healthcare) according to the manufacturer's instructions. […]

EC50 (K-562; K562, 24 h, K 562, incubation 1 day): > 100 µM
EC50 (K-562; K562, 72 h, K 562, incubation 3 days): 12.2 µM
EC50 (K-562; K562, 120 h, K 562, incubation 5 days): 9.1 µM
EC50 (HeLa; 24 h, incubation 1 day): > 100 µM
EC50 (HeLa; 72 h, incubation 3 days): 14.6 µM
EC50 (HeLa; 120 h, incubation 5 days): 8.6 µM
SMILES: NCCCCCn1c(Sc2cc3c(cc2I)OCO3)nc(C(N)=O)c1N [Example 6, 5-amino-1-(5-amino-pentyl)-2-(6-iodo-benzo[1,3]dioxol-5-ylsulfanyl)-1H-imidazole-4-carboxamide]
EC50 (WI-38; 24 h, WI-38, incubation 1 day): > 100 µM
EC50 (WI-38; 72 h, WI-38, incubation 3 days): 27.7 µM
EC50 (WI-38; 120 h, WI-38, incubation 5 days): 19.5 µM
protein levels of Hsp90 client proteins (c-Raf-1, Cdk4, Her2) and co-chaperone Hsp70 by western blot [1]: acts in a similar way that 17AAG; also recorded: there is a specific interaction with hsp90 target in cells

— patent US20100240656A1, “COMPOUNDS AS HSP90 INHIBITORS” (ORYZON GENOMICS, S.A., priority 2007, published 2010)
